Measured values reported in patent publication EP4696691A1, “TRICYCLIC COMPOUND, AND PREPARATION METHOD THEREFOR AND USE THEREOF” (Shanghai Huilun Pharmaceutical Co., Ltd., priority 2023, dated 2024).
Like-named read-outs stand apart in the source and are kept apart here.

What was measured:
[1] = tested on: LPS induced IL-6 release in human PBMC cells; test: Inhibition of LPS induced IL-6 release in human PBMC cells (IL-6 HTRF assay); type: cell-based; conditions: 2 h compound pre-incubation, LPS 5 ng/mL for 4 h, IL-6 in supernatant
Protocol: I. Recovery and seeding of PBMC, and treatment of compounds (human PBMC cells were purchased from Oricell, item number: Fpb003F)
• 1. Preparation of compounds Sample dilutions of a series of concentrations were obtained by dilution in DMSO using Bravo, and then 80 nL was transferred into a cell plate using ECHO. The final concentration of DMSO in the cell culture medium is 0.1%. • 2. Frozen cells were quickly thawed in a 37°C water bath and stirred continuously. • 3. 25 mL of fresh preheated culture medium was added into a 50 mL centrifuge tube, and then the cells were added dropwise. Then the cells were centrifuged at 2,000 rpm for 10 min. • 4. […] The total number of cells required was calculated based on cell concentration to perform the assay. 7×10e4 cells were added per well (70 µL). • 6. The cell plate was placed and incubated in a 5% CO2 incubator at 37°C for 2 h.
• 1. LPS: A stock solution (1 mg/mL) was diluted in dH2O, aliquoted, and stored at -80°C. • 2. 8-fold LPS was added per well (10 µl/well) (with a final concentration of 5 ng/mL). The cells were incubated in a 5% CO2 incubator at 37°C for 4 h. • 3. 70 µl of supernatant was collected per well using Bravo, and then IL-6 HTRF assay was performed. The supernatant may be stored at -80°C.
1. Preparation of standards and sample dilutions. 2. 16 µL of each sample was taken using Bravo and added to wells. Then 16 µL of each standard was taken and added to corresponding wells. 3.4 µL of a premixed IL6 antibody working solution was added to each of all wells. 4. The cell plate was sealed and incubated at room temperature for 2 h. 5.

[2] = Pharmacokinetic behavior in mice (plasma concentration by LC-MS/MS); type: in vivo; conditions: mouse, plasma, male ICR mice; for Cmax: read-out: Cmax
Protocol: (§1) Three healthy ICR mice (SPF grade, from Beijing Vital River Laboratory Animal Technology Co., Ltd.), male, weighing 18-25 g, were intravenously injected with a compound (1 mg/kg) at a volume of 5 mL/kg. The compound was prepared using 5% DMSO+10% Solutol+85% Saline (w/v), and the animals were not fasted before the experiment.
as §1, with “were intragastrically administered” for “were intravenously injected with”, “compound (5” for “compound (1”, “of 10” for “of 5”
Blood samples (about 0.05 mL each) were collected from the cheeks at 5 min, 15 min, 30 min, 1 h, 2 h, 4 h, 6 h, 8 h, and 24 h after intravenous administration, and at 5 min, 15 min, 30 min, 1 h, 2 h, 4 h, 6 h, 8 h, and 24 h after intragastrical administration, and anticoagulated with heparin sodium. Following collection, the blood samples were placed on ice and the plasma was centrifuged within 1 h (centrifugation conditions: 6,000 g, 3 min, 2 °C to 8°C). The concentration of the compounds in the plasma was determined by liquid chromatography tandem mass spectrometry. The plasma samples were stored in a -80°C freezer before analysis. With plasma concentration data at different time points, pharmacokinetic parameters were calculated by Phoenix WinNonlin8.2.0, and the results are shown in Table 4: Table 4

[3] = molecular target: T1, IRAK4-HiBiT fusion protein (Homo sapiens, UniProt Q9NWZ3); test: Detection of HiBiT-IRAK4 proteolysis levels in K562 IRAK4-HiBiT cells (Nano-Glo HiBiT Lytic assay); type: cell-based; conditions: 6 h incubation
T1 construct: K562 from ATCC
T1 sequence (Q9NWZ3 1-460): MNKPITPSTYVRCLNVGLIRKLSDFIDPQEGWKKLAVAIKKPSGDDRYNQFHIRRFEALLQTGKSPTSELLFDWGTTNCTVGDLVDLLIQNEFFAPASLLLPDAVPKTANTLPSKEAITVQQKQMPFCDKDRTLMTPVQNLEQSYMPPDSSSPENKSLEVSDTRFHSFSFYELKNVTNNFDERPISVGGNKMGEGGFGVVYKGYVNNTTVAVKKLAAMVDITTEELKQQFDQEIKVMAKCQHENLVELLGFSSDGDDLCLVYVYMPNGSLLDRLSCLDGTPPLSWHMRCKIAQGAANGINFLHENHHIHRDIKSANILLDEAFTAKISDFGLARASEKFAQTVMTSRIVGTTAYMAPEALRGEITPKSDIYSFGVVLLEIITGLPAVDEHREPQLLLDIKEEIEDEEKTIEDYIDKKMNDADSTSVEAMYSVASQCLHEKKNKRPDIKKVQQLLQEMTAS
Protocol: Test Example 1 Detection of HiBiT-IRAK4 proteolysis levels in K562 IRAK4-HiBiT cells co-incubated with compounds of the present application • Reagents, devices, and consumables in experiments: • Nano-Glo Lytic Detection Assay, purchased from Promega; • EnVision, purchased from PerkinElmer; • Name of cell line: K562 IRAK4-HiBiT stable transformation cell strain (capable of stably expressing IRAK4-HiBiT fusion protein), constructed by Shanghai Bioduro Biologics Co., Ltd., where a K562 cell strain was purchased from ATCC. The culture medium is IMDM+10% FBS+1% P/S (volume percentage, where FBS is fetal bovine serum and P/S is Penicillin-Streptomycin, a 1:1 mixture of penicillin and streptomycin antibiotic solution (10,000 units/mL)).
Cell culture: K562 IRAK4-HiBiT cells were incubated at 37°C, and passaged every 2-3 d, with a seeding density of 200,000 cells/mL.
IRAK4-HiBiT proteolysis experiment: • Step 1: Cell seeding and treatment of compound • 1. A 10 mM compound mother liquor was prepared using DMSO, and a compound solution with a working concentration of 1,000 times (the highest working concentration is 10 µM, diluted 3.162 times, with a total of 10 concentration gradients) was prepared using Bravo automatic liquid processing platform. • 2. 40 nL of a compound working solution was transferred to a 384 well plate, and an equal volume of DMSO was added to positive control wells. • 3. 20 µL of a culture solution was added per well and shaken for 10 min. • 4.20 µL of a K562 IRAK4-HiBiT cell suspension was added per well (6,000 cells/well), and an equal volume of culture medium was added to negative control wells. • 5. The well plate was rotated at 1,000 rpm for 1 min. • 6. The cells were incubated in a 5% CO2 incubator at 37°C for 2 h or 6 h. • Step 2: HiBiT Lytic experiment • 1. The well plate was placed at room temperature to equilibrate for 30 min. • 2. 20 µL of Nano-Glo HiBiT Lytic reagent (trade name: Nano-Glo® HiBiT Lytic Detection Reagent) and the well plate was kept in the dark. • 3. The well plate was placed on an orbital shaker at 300 rpm for 5 min. • 4. The cells were incubated at room temperature for 10 min. • 5. The luminous value was read by Envision. • 6. Data was calculated and processed. Degradation degree%=(negative control - experimental well)/(negative control - positive control) * 100%. Using XL-fit software, a degradation curve was obtained by fitting using a 4 Parameter Logistic Model, and the values of Relative DC50 (nM) and Absolute DC50 (nM) were obtained.

[4] = po, Intragastric administration (5 mg/kg)
[5] = Intravenous injection (1 mg/kg)

COc1cc2nn([C@H]3CC[C@H](CCN4CCC5(CC4)OCc4cc(C6CCC(=O)NC6=O)ccc45)CC3)cc2cc1C(=O)Nc1cccc(C(F)(F)F)n1 (stereo partly drawn) [Compound 96]
IC50 [1]: 0.23 nM
AUC(0-t) [2, 4]: 3640 ng·h/mL
bioavailability [2, 4]: 35.4%
half-life [2, 4]: 14.7 h
Cmax [2, 4]: 239 ng/mL
AUC(0-t) [2, 5]: 2060 ng·h/mL
clearance [2, 5]: 4.59 mL/min/kg
Cmax [2, 5]: 243 ng/mL
Vd ([2]; Intravenous injection (1 mg/kg), read-out: Vss): 7.97 L/kg
Dmax [3]: 97%
DC50 ([3]; read-out: Absolute DC50): 0.48 nM
DC50 ([3]; read-out: Relative DC50): 0.44 nM
